# System: Jurkat
# Assay: CellTiter-Glo Luminescent Cell Viability Assay, half inhibitory concentration (IC50) on tumor cell proliferation
# Type: cell-based
# Conditions: Homo sapiens, Jurkat cells, 72 h treatment
# How it was run: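 Jurkat cells seeded at 20,000 cells/well in serum-containing RPMI1640, treated after 24 h with serially diluted compound for 72 h at 37 °C, 5% CO2. Viability read by CellTiter-Glo luminescence; IC50 calculated from growth-inhibition curves.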
row,Structure (SMILES),IC50
1,"O=C(/C=C/c1cccnc1)NCCCCC1CCN(C(=O)c2ccc(C3CCN(CCCCCC#Cc4cccc5c4CN(C4CCC(=O)NC4=O)C5=O)CC3)cc2)CC1 (centres unmarked) [SIAIS631139, (E)-N-(4-(1-(4-(1-(7-(2-(2,6-dioxopiperidin-3-yl)-1-oxoisoindolin-4-yl)hept-6-yn-1-yl)piperidin-4-yl)benzoyl)piperidin-4-yl)butyl)-3-(pyridin-3-yl)acrylamide]",5.23 nM
2,"O=C(/C=C/c1cccnc1)NCCCCC1CCN(C(=O)c2ccc(C3CCN(CCCCCCC#Cc4cccc5c4CN(C4CCC(=O)NC4=O)C5=O)CC3)cc2)CC1 (centres unmarked) [SIAIS631140, (E)-N-(4-(1-(4-(1-(8-(2-(2,6-dioxopiperidin-3-yl)-1-oxoisoindolin-4-yl)oct-7-yn-1-yl)piperidin-4-yl)benzoyl)piperidin-4-yl)butyl)-3-(pyridin-3-yl)acrylamide]",9.7 nM
3,"O=C(/C=C/c1cccnc1)NCCCCC1CCN(C(=O)c2ccc(C3CCN(CCCCSc4cccc5c4CN(C4CCC(=O)NC4=O)C5=O)CC3)cc2)CC1 (centres unmarked) [SIAIS631141, (E)-N-(4-(1-(4-(1-(4-((2-(2,6-dioxopiperidin-3-yl)-1-oxoisoindolin-4-yl)thio)butyl)piperidin-4-yl)benzoyl)piperidin-4-yl)butyl)-3-(pyridin-3-yl)acrylamide]",5.36 nM
4,"O=C(/C=C/c1cccnc1)NCCCCC1CCN(C(=O)c2ccc(N3CCNCC3)nn2)CC1 [SIAIS632004, (E)-N-(4-(1-(6-(piperazin-1-yl)pyridazine-3-carbonyl)piperidin-4-yl)butyl)-3-(pyridin-3-yl)acrylamide]",362 nM
5,"O=C(/C=C/c1cccnc1)NCCCCC1CCN(C(=O)c2ccc(N3CCC(N4CCN(CCCCCC#Cc5cccc6c5CN(C5CCC(=O)NC5=O)C6=O)CC4)CC3)nn2)CC1 (centres unmarked) [SIAIS632005, (E)-N-(4-(1-(6-(4-(4-(7-(2-(2,6-dioxopiperidin-3-yl)-1-oxoisoindolin-4-yl)hept-6-yn-1-yl)piperazin-1-yl)piperidin-1-yl)pyridazine-3-carbonyl)piperidin-4-yl)butyl)-3-(pyridin-3-yl)acrylamide]",3.98 nM
6,"O=C(/C=C/c1cccnc1)NCCCCC1CCN(C(=O)c2ccc(N3CCC(N4CCN(CCCCCCC#Cc5cccc6c5CN(C5CCC(=O)NC5=O)C6=O)CC4)CC3)nn2)CC1 (centres unmarked) [SIAIS632006, (E)-N-(4-(1-(6-(4-(4-(8-(2-(2,6-dioxopiperidin-3-yl)-1-oxoisoindolin-4-yl)oct-7-yn-1-yl)piperazin-1-yl)piperidin-1-yl)pyridazine-3-carbonyl)piperidin-4-yl)butyl)-3-(pyridin-3-yl)acrylamide]",6.39 nM
7,"O=C(/C=C/c1cccnc1)NCCCCC1CCN(C(=O)c2ccc(N3CCC(N4CCN(CCCCSc5cccc6c5CN(C5CCC(=O)NC5=O)C6=O)CC4)CC3)nn2)CC1 (centres unmarked) [SIAIS632007, (E)-N-(4-(1-(6-(4-(4-(4-((2-(2,6-dioxopiperidin-3-yl)-1-oxoisoindolin-4-yl)thio)butyl)piperazin-1-yl)piperidin-1-yl)pyridazine-3-carbonyl)piperidin-4-yl)butyl)-3-(pyridin-3-yl)acrylamide]",3.59 nM
8,"O=C(/C=C/c1cccnc1)NCCCCC1CCN(C(=O)c2ccc(N3CCN(CCCCCC#Cc4cccc5c4CN(C4CCC(=O)NC4=O)C5=O)CC3)nn2)CC1 (centres unmarked) [SIAIS632010, (E)-N-(4-(1-(6-(4-(7-(2-(2,6-dioxopiperidin-3-yl)-1-oxoisoindolin-4-yl)hept-6-yn-1-yl)piperazin-1-yl)pyridazine-3-carbonyl)piperidin-4-yl)butyl)-3-(pyridin-3-yl)acrylamide]",8.35 nM
9,"O=C(/C=C/c1cccnc1)NCCCCC1CCN(C(=O)c2ccc(N3CCN(CCCCCCC#Cc4cccc5c4CN(C4CCC(=O)NC4=O)C5=O)CC3)nn2)CC1 (centres unmarked) [SIAIS632011, (E)-N-(4-(1-(6-(4-(8-(2-(2,6-dioxopiperidin-3-yl)-1-oxoisoindolin-4-yl)oct-7-yn-1-yl)piperazin-1-yl)pyridazine-3-carbonyl)piperidin-4-yl)butyl)-3-(pyridin-3-yl)acrylamide]",9.3 nM
10,"O=C(/C=C/c1cccnc1)NCCCCC1CCN(C(=O)c2ccc(N3CCN(CCCCSc4cccc5c4CN(C4CCC(=O)NC4=O)C5=O)CC3)nn2)CC1 (centres unmarked) [SIAIS632012, (E)-N-(4-(1-(6-(4-(4-((2-(2,6-dioxopiperidin-3-yl)-1-oxoisoindolin-4-yl)thio)butyl)piperazin-1-yl)pyridazine-3-carbonyl)piperidin-4-yl)butyl)-3-(pyridin-3-yl)acrylamide]",1.66 nM
11,"O=C(/C=C/c1cccnc1)NCCCCC1CCN(C(=O)c2ccc(N3CCN(C(=O)CNc4cccc5c4CN(C4CCC(=O)NC4=O)C5=O)CC3)cc2)CC1 (centres unmarked) [SIAIS632014, (E)-N-(4-(1-(4-(4-((2-(2,6-dioxopiperidin-3-yl)-1-oxoisoindolin-4-yl)glycyl)piperazin-1-yl)benzoyl)piperidin-4-yl)butyl)-3-(pyridin-3-yl)acrylamide]",6.81 nM
12,"O=C(/C=C/c1cccnc1)NCCCCC1CCN(C(=O)c2ccc(N3CCN(C(=O)CCCNc4cccc5c4CN(C4CCC(=O)NC4=O)C5=O)CC3)cc2)CC1 (centres unmarked) [SIAIS632015, (E)-N-(4-(1-(4-(4-(4-((2-(2,6-dioxopiperidin-3-yl)-1-oxoisoindolin-4-yl)amino)butanoyl)piperazin-1-yl)benzoyl)piperidin-4-yl)butyl)-3-(pyridin-3-yl)acrylamide]",523 nM
13,"O=C(/C=C/c1cccnc1)NCCCCC1CCN(C(=O)c2ccc(N3CCN(C(=O)CCCCNc4cccc5c4CN(C4CCC(=O)NC4=O)C5=O)CC3)cc2)CC1 (centres unmarked) [SIAIS632016, (E)-N-(4-(1-(4-(4-(5-((2-(2,6-dioxopiperidin-3-yl)-1-oxoisoindolin-4-yl)amino)pentanoyl)piperazin-1-yl)benzoyl)piperidin-4-yl)butyl)-3-(pyridin-3-yl)acrylamide]",64.4 nM

# Second part, the compound after the results:
row,IC50,Structure (SMILES)
1,21.2 nM,"O=C(/C=C/c1cccnc1)NCCCCC1CCN(C(=O)c2ccc(N3CCN(C(=O)CCCCCNc4cccc5c4CN(C4CCC(=O)NC4=O)C5=O)CC3)cc2)CC1 (centres unmarked) [SIAIS632017, (E)-N-(4-(1-(4-(4-(6-((2-(2,6-dioxopiperidin-3-yl)-1-oxoisoindolin-4-yl)amino)hexanoyl)piperazin-1-yl)benzoyl)piperidin-4-yl)butyl)-3-(pyridin-3-yl)acrylamide]"
2,55.5 nM,"O=C(/C=C/c1cccnc1)NCCCCC1CCN(C(=O)c2ccc(N3CCN(C(=O)CCCCCCNc4cccc5c4CN(C4CCC(=O)NC4=O)C5=O)CC3)cc2)CC1 (centres unmarked) [SIAIS632018, (E)-N-(4-(1-(4-(4-(7-((2-(2,6-dioxopiperidin-3-yl)-1-oxoisoindolin-4-yl)amino)heptanoyl)piperazin-1-yl)benzoyl)piperidin-4-yl)butyl)-3-(pyridin-3-yl)acrylamide]"
3,294 nM,"O=C(/C=C/c1cccnc1)NCCCCC1CCN(C(=O)c2ccc(N3CCN(C(=O)CSc4cccc5c4C(=O)N(C4CCC(=O)NC4=O)C5=O)CC3)cc2)CC1 (centres unmarked) [SIAIS632027, (E)-N-(4-(1-(4-(4-(2-((2-(2,6-dioxopiperidin-3-yl)-1,3-dioxoisoindolin-4-yl)thio)acetyl)piperazin-1-yl)benzoyl)piperidin-4-yl)butyl)-3-(pyridin-3-yl)acrylamide]"
4,105 nM,"O=C(/C=C/c1cccnc1)NCCCCC1CCN(C(=O)c2ccc(N3CCN(C(=O)CCSc4cccc5c4C(=O)N(C4CCC(=O)NC4=O)C5=O)CC3)cc2)CC1 (centres unmarked) [SIAIS632028, (E)-N-(4-(1-(4-(4-(3-((2-(2,6-dioxopiperidin-3-yl)-1,3-dioxoisoindolin-4-yl)thio)propanoyl)piperazin-1-yl)benzoyl)piperidin-4-yl)butyl)-3-(pyridin-3-yl)acrylamide]"
5,28.7 nM,"O=C(/C=C/c1cccnc1)NCCCCC1CCN(C(=O)c2ccc(N3CCN(C(=O)CCCCSc4cccc5c4C(=O)N(C4CCC(=O)NC4=O)C5=O)CC3)cc2)CC1 (centres unmarked) [SIAIS632029, (E)-N-(4-(1-(4-(4-(5-((2-(2,6-dioxopiperidin-3-yl)-1,3-dioxoisoindolin-4-yl)thio)pentanoyl)piperazin-1-yl)benzoyl)piperidin-4-yl)butyl)-3-(pyridin-3-yl)acrylamide]"
6,11 nM,"O=C(/C=C/c1cccnc1)NCCCCC1CCN(C(=O)c2ccc(N3CCN(C(=O)CCCCCSc4cccc5c4C(=O)N(C4CCC(=O)NC4=O)C5=O)CC3)cc2)CC1 (centres unmarked) [SIAIS632030, (E)-N-(4-(1-(4-(4-(6-((2-(2,6-dioxopiperidin-3-yl)-1,3-dioxoisoindolin-4-yl)thio)hexanoyl)piperazin-1-yl)benzoyl)piperidin-4-yl)butyl)-3-(pyridin-3-yl)acrylamide]"
7,24.4 nM,"O=C(/C=C/c1cccnc1)NCCCCC1CCN(C(=O)c2ccc(N3CCN(C(=O)CCCCCCSc4cccc5c4C(=O)N(C4CCC(=O)NC4=O)C5=O)CC3)cc2)CC1 (centres unmarked) [SIAIS632031, (E)-N-(4-(1-(4-(4-(7-((2-(2,6-dioxopiperidin-3-yl)-1,3-dioxoisoindolin-4-yl)thio)heptanoyl)piperazin-1-yl)benzoyl)piperidin-4-yl)butyl)-3-(pyridin-3-yl)acrylamide]"
8,192 nM,"O=C(/C=C/c1cccnc1)NCCCCC1CCN(C(=O)c2ccc(N3CCN(C(=O)CCCCCCCSc4cccc5c4C(=O)N(C4CCC(=O)NC4=O)C5=O)CC3)cc2)CC1 (centres unmarked) [SIAIS632032, (E)-N-(4-(1-(4-(4-(8-((2-(2,6-dioxopiperidin-3-yl)-1,3-dioxoisoindolin-4-yl)thio)octanoyl)piperazin-1-yl)benzoyl)piperidin-4-yl)butyl)-3-(pyridin-3-yl)acrylamide]"
9,78.7 nM,"O=C(/C=C/c1cccnc1)NCCCCC1CCN(C(=O)c2ccc(N3CCN(C(=O)COc4cccc5c4C(=O)N(C4CCC(=O)NC4=O)C5=O)CC3)cc2)CC1 (centres unmarked) [SIAIS632033, (E)-N-(4-(1-(4-(4-(2-((2-(2,6-dioxopiperidin-3-yl)-1,3-dioxoisoindolin-4-yl)oxy)acetyl)piperazin-1-yl)benzoyl)piperidin-4-yl)butyl)-3-(pyridin-3-yl)acrylamide]"
10,95.1 nM,"O=C(/C=C/c1cccnc1)NCCCCC1CCN(C(=O)c2ccc(N3CCN(C(=O)CCCCOc4cccc5c4C(=O)N(C4CCC(=O)NC4=O)C5=O)CC3)cc2)CC1 (centres unmarked) [SIAIS632034, (E)-N-(4-(1-(4-(4-(5-((2-(2,6-dioxopiperidin-3-yl)-1,3-dioxoisoindolin-4-yl)oxy)pentanoyl)piperazin-1-yl)benzoyl)piperidin-4-yl)butyl)-3-(pyridin-3-yl)acrylamide]"
